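Values below derive from 48-hour exposures of cells grown in 96-well plates, with endpoints linearly interpolated between the two concentrations bracketing the appropriate inhibition level. GI50: concentration for 50% inhibition of growth.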 The source made the active and inactive calls. Rule as the data show it: active = GI50 up to about 1.1 µM and inactive = higher.
Columns and labels:
Experiment in all cases: DTP human tumour cell line panel, 48 h
[1] = tested on: SK-MEL-28
[2] = tested on: IGROV-1
[3] = tested on: U-251
[4] = tested on: RXF 393
[5] = tested on: MDA-MB-435
[6] = tested on: HL-60
[7] = tested on: A498
[8] = tested on: OVCAR-4
[9] = tested on: NCI/ADR-RES
[10] = tested on: CAKI-1
[11] = tested on: LOX IMVI
[12] = tested on: SF-539
[13] = tested on: SF-295
[14] = tested on: SF-268
[15] = tested on: K562
[16] = tested on: HCT-15
[17] = tested on: HOP-62
[18] = tested on: COLO 205
[19] = tested on: MDA-MB-231
[20] = tested on: PC-3
[21] = tested on: MDA-N
[22] = tested on: HT-29
[23] = tested on: HOP-92
[24] = tested on: RPMI-8226
[25] = tested on: OVCAR-8
[26] = tested on: HCC 2998
[27] = tested on: OVCAR-5
[28] = tested on: SNB-19
[29] = tested on: TK-10
[30] = tested on: M14
[31] = tested on: T47D
[32] = tested on: NCI-H460
[33] = tested on: NCI-H226
[34] = tested on: SK-MEL-5
[35] = tested on: Hs-578T
[36] = tested on: SR
[37] = tested on: KM12
[38] = tested on: HCT-116
[39] = tested on: MOLT-4
[40] = tested on: BT-549
[41] = tested on: SK-MEL-2
[42] = tested on: SN12C
[43] = tested on: UACC-62
[44] = tested on: CCRF-CEM
[45] = tested on: SW-620
[46] = tested on: MCF7
[47] = tested on: SNB-75
[48] = tested on: NCI-H23
[49] = tested on: 786-0
[50] = tested on: OVCAR-3
[51] = tested on: NCI-H522
[52] = tested on: A549
[53] = tested on: SK-OV-3
[54] = tested on: ACHN
[55] = tested on: UACC-257
[56] = tested on: UO-31
[57] = tested on: Malme-3M
[58] = tested on: DU-145
[59] = tested on: EKVX
[60] = tested on: KM-20L2

Measured: GI50

CC(=O)NC1C(OCc2ccccc2)OC(CO)C(O)C1OC(C)C(=O)NC(C)C(=O)NC(CCC(=O)NCCCCNc1c2ccccc2nc2cccc([N+](=O)[O-])c12)C(N)=O (stereo unspecified)
0.00893 µM: [16]
active: [1] 0.163 µM | [2] 0.24 µM | [3] 0.042 µM | [4] 0.0199 µM | [5] 0.0325 µM | [6] 0.027 µM | [7] 0.131 µM | [8] 0.242 µM | [9] 0.123 µM | [10] 0.0325 µM | [11] 0.216 µM | [12] 0.0512 µM | [13] 0.196 µM | [14] 0.0357 µM | [15] 0.0106 µM | [17] 0.0791 µM | [18] 0.0327 µM | [19] 0.0237 µM | [20] 0.0989 µM | [21] 0.0232 µM | [22] 0.00514 µM | [23] 0.0176 µM | [24] 0.0118 µM | [25] 0.0228 µM | [26] 0.013 µM | [27] 0.336 µM | [28] 0.021 µM | [29] 0.0202 µM | [30] 0.277 µM | [31] 0.291 µM | [32] 0.00445 µM | [33] 0.0962 µM | [34] 0.0356 µM | [35] 0.171 µM | [36] 0.00796 µM | [37] 0.0482 µM | [38] 0.00748 µM | [39] 0.148 µM | [40] 0.196 µM | [41] 0.0944 µM | [42] 0.0284 µM | [43] 0.0286 µM | [44] 0.114 µM | [45] 0.00741 µM | [46] 0.00995 µM | [47] 0.18 µM | [48] 0.0457 µM | [49] 0.0198 µM | [50] 0.139 µM | [51] 0.0705 µM | [52] 0.0404 µM | [53] 0.22 µM | [54] 0.0119 µM | [55] 0.121 µM | [56] 0.0738 µM | [57] 0.0348 µM | [58] 0.00887 µM | [59] 0.0625 µM

Clc1cc(OCc2nn3c(Cc4ccccc4)nnc3s2)c(Cl)cc1OCc1nn2c(Cc3ccccc3)nnc2s1
inactive: [1] > 100 µM | [2] 36 µM | [3] 31.6 µM | [4] 17 µM | [5] > 100 µM | [6] 68.1 µM | [7] 30.5 µM | [8] 50 µM | [9] 16 µM | [10] > 100 µM | [11] > 100 µM | [12] 42.2 µM | [13] 31.3 µM | [14] 43.8 µM | [15] 4.93 µM | [17] 33.3 µM | [18] > 100 µM | [19] 26.4 µM | [20] 78.3 µM | [21] 79.4 µM | [22] 76.6 µM | [23] 18.8 µM | [24] 8.89 µM | [25] 28.6 µM | [26] > 100 µM | [27] > 100 µM | [28] 27.9 µM | [29] 29.9 µM | [30] > 100 µM | [31] 22.1 µM | [32] > 100 µM | [33] > 100 µM | [34] 41.8 µM | [35] 42.4 µM | [37] > 100 µM | [38] 77.1 µM | [39] 3.77 µM | [40] 20.8 µM | [41] > 100 µM | [42] > 100 µM | [43] > 100 µM | [44] 12.3 µM | [45] > 100 µM | [46] > 100 µM | [47] 1.32 µM | [48] 23.9 µM | [49] 33.7 µM | [50] 33.3 µM | [51] > 100 µM | [52] 94.8 µM | [53] 25.8 µM | [54] 59 µM | [55] > 100 µM | [56] 47.8 µM | [57] > 100 µM | [58] 47.1 µM | [59] 54.1 µM
active: [36] 0.541 µM
7.05 µM: [16]

N=C(N)NC(=N)Nc1ccc(S(=O)(=O)O)cc1
> 100 µM: [16]
inactive: [1] > 100 µM | [2] > 100 µM | [3] > 100 µM | [4] > 100 µM | [5] > 100 µM | [6] > 100 µM | [7] > 100 µM | [8] > 100 µM | [9] > 100 µM | [10] > 100 µM | [11] > 100 µM | [12] > 100 µM | [13] > 100 µM | [14] > 100 µM | [15] > 100 µM | [17] > 100 µM | [18] > 100 µM | [19] > 100 µM | [20] > 100 µM | [21] > 100 µM | [22] > 100 µM | [23] 77.8 µM | [24] > 100 µM | [25] > 100 µM | [26] > 100 µM | [27] > 100 µM | [28] > 100 µM | [29] > 100 µM | [30] > 100 µM | [31] > 100 µM | [32] > 100 µM | [33] > 100 µM | [34] > 100 µM | [35] > 100 µM | [36] > 100 µM | [37] > 100 µM | [38] > 100 µM | [40] > 100 µM | [41] > 100 µM | [42] > 100 µM | [43] > 100 µM | [44] > 100 µM | [45] > 100 µM | [46] > 100 µM | [47] > 100 µM | [48] > 100 µM | [49] > 100 µM | [50] > 100 µM | [51] > 100 µM | [52] > 100 µM | [53] > 100 µM | [54] > 100 µM | [55] > 100 µM | [56] > 100 µM | [57] > 100 µM | [58] > 100 µM | [59] > 100 µM

CN(CCO)CC(=O)CC(O)(C(F)(F)F)C(F)(F)F
33.3 µM: [16]
inactive: [1] 42.6 µM | [2] 43.2 µM | [3] 28.6 µM | [4] 19.5 µM | [5] 36 µM | [6] 26.4 µM | [7] 44.6 µM | [8] 50 µM | [9] 41 µM | [10] 30.1 µM | [11] 31.4 µM | [12] 34.7 µM | [13] 30 µM | [15] 42.4 µM | [18] 35.3 µM | [19] 29.7 µM | [20] 26.2 µM | [21] 32.1 µM | [22] 30.7 µM | [23] 22.5 µM | [24] 32.1 µM | [25] 41.3 µM | [26] 56.2 µM | [27] 52.5 µM | [28] 41.4 µM | [29] 35.4 µM | [30] 32.5 µM | [31] 28.4 µM | [32] 27.5 µM | [33] 36.3 µM | [34] 16.3 µM | [35] 21.3 µM | [36] 40.8 µM | [37] 39.8 µM | [38] 30.8 µM | [39] 52.6 µM | [40] 43.7 µM | [41] 33 µM | [43] 35.6 µM | [44] 32.1 µM | [45] 34.9 µM | [46] 46.2 µM | [47] 14.5 µM | [48] 23.6 µM | [49] 32.6 µM | [50] 26.5 µM | [51] 40.2 µM | [52] 30.4 µM | [53] 26.4 µM | [54] 27.7 µM | [55] 37.6 µM | [56] 39.1 µM | [57] 34.7 µM | [58] 42.7 µM | [59] 31.2 µM

c1ccncc1
inactive: [1] > 100 µM | [2] > 100 µM | [3] > 100 µM | [4] > 100 µM | [6] > 100 µM | [7] > 100 µM | [8] > 100 µM | [10] > 100 µM | [13] > 100 µM | [15] > 100 µM | [17] > 100 µM | [18] > 100 µM | [22] > 100 µM | [23] > 100 µM | [24] > 100 µM | [25] > 100 µM | [26] > 100 µM | [27] > 100 µM | [28] > 100 µM | [29] > 100 µM | [30] > 100 µM | [60] > 100 µM | [32] > 100 µM | [34] > 100 µM | [37] > 100 µM | [38] > 100 µM | [39] > 100 µM | [41] > 100 µM | [43] > 100 µM | [44] > 100 µM | [45] > 100 µM | [47] > 100 µM | [49] > 100 µM | [50] > 100 µM | [51] > 100 µM | [53] > 100 µM | [55] > 100 µM | [56] > 100 µM | [59] > 100 µM
